Usually IC50 stands for the concentration needed to halve the response being measured.

The assay deals with GMPPNP-loaded H-Ras or GTP-loaded K-Ras. Kind of assay: Fluorescence polarization competition assay with TAMRA-labeled probe R4007. The class given is binding, human. The settings on record: 120 nM Ras, 30 nM probe R4007, 60 minutes at room temperature; read-out: Probe displacement (nM IC50). The procedure, abridged:
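120 nM GMPPNP-loaded H-Ras or GTP-loaded K-Ras was preincubated with 30 nM TAMRA-labeled R4007 probe for 20 min at room temperature in Tris pH 7.5 buffer with MgCl2, EDTA and Triton X-100. Serially diluted competitor was then added for 60 min. Polarization was read at 535/595 nm, with Ki from a one-site Ki fit and IC50 from probe displacement.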
(In fluorescence polarisation assays a small probe gives low polarisation when free and higher when bound to something large.)

Where a SMILES comes first, the peptide text is derived from it. [ ]: non-standard residue; d: D form. Trp(7-aza) = N[C@@H](Cc1c[nH]c2ncccc12)C(=O)O; NMePhe(4-F) = CN[C@@H](Cc1ccc(F)cc1)C(=O)O; Phg = N[C@H](C(=O)O)c1ccccc1; Tle = CC(C)(C)[C@H](N)C(=O)O; NMeA = CN[C@@H](C)C(=O)O; Pra = C#CC[C@H](N)C(=O)O; Ahx = NCCCCCC(=O)O; Ava = NCCCCC(=O)O; Sar = CNCC(=O)O

As to `CC(=O)N[C@@H](CO)C(=O)N[C@H]1CSCc2cccc(c2)CSC[C@@H](C(N)=O)NC(=O)CN(C)C(=O)[C@H](Cc2ccc(F)cc2)N(C)C(=O)[C@H](Cc2ccc(O)cc2)NC(=O)[C@H](Cc2c[nH]c3ncccc23)NC(=O)[C@H](c2ccccc2)NC(=O)[C@H](C)N(C)C(=O)[C@H](Cc2c[nH]cn2)NC(=O)[C@H](CCCCN)NC(=O)[C@H](C(C)(C)C)NC(=O)[C@H](Cc2ccc(O)cc2)NC1=O` (relative stereo) [Compound R4104, ACE-SER-CYS*-TYR-TBG-LYS-HIS-NMA-PHG-7AW-TYR-MFF-SAR-CYS*-NH2], the IC50 was found to be 3.29 nM. Regarding `C#CC[C@@H]1NC(=O)CN(C)C(=O)[C@H](Cc2ccc(F)cc2)N(C)C(=O)[C@H](Cc2ccc(O)cc2)NC(=O)[C@H](Cc2c[nH]c3ncccc23)NC(=O)[C@H](c2ccccc2)NC(=O)[C@H](C)N(C)C(=O)[C@H](Cc2c[nH]cn2)NC(=O)[C@H](CCCCN)NC(=O)[C@H](C(C)(C)C)NC(=O)[C@H](Cc2ccc(O)cc2)NC(=O)CCCCNC1=O` [Compound R4128, APA*-TYR-TBG-LYS-HIS-NMA-PHG-7AW-TYR-MFF-SAR-PRG*] (cyclo([Ava]Y[Tle]KH[NMeA][Phg][Trp(7-aza)]Y[NMePhe(4-F)][Sar][Pra])), the IC50 came to 215 nM.

`C=CC(=O)NCCC[C@H]1C(=O)N[C@@H](c2ccccc2)C(=O)N[C@@H](Cc2c[nH]c3ncccc23)C(=O)N[C@@H](Cc2ccc(O)cc2)C(=O)N(C)[C@@H](Cc2ccc(F)cc2)C(=O)N(C)CC(=O)N[C@H](C(N)=O)CSCc2cccc(c2)CSC[C@H](NC(=O)[C@H](CCC)NC(C)=O)C(=O)N[C@@H](Cc2ccc(O)cc2)C(=O)N[C@@H](C(C)(C)C)C(=O)N[C@@H](C)C(=O)N[C@@H](Cc2c[nH]cn2)C(=O)N1C` (relative stereo) [Compound R4142, ACE-NVA-CYS*-TYR-TBG-ALA-HIS-MORAC-PHG-7AW-TYR-MFF-SAR-CYS*-NH2]: the IC50 came to 1240 nM. Take `CCC[C@H](N)C(=O)N[C@H]1CSCc2cccc(c2)CSC[C@@H](C(=O)N[C@H](CO)C(=O)N[C@@H](CCCCN)C(=O)NCC(=O)N[C@@H](CS)C(=O)N[C@H](C(=O)N[C@H](C(=O)N[C@@H](CCSC)C(=O)O)[C@@H](C)CC)C(C)C)NC(=O)CN(C)C(=O)[C@H](Cc2ccc(F)cc2)N(C)C(=O)[C@H](Cc2ccc(O)cc2)NC(=O)[C@H](Cc2c[nH]c3ncccc23)NC(=O)[C@H](c2ccccc2)NC(=O)[C@H](C)N(C)C(=O)[C@H](Cc2c[nH]cn2)NC(=O)[C@H](CCCCN)NC(=O)[C@H](C(C)(C)C)NC(=O)[C@H](Cc2ccc(O)cc2)NC1=O` (relative stereo) [Compound R4114, NVA-CYS*-TYR-TBG-LYS-HIS-NMA-PHG-7AW-TYR-MFF-SAR-CYS*-DSER-LYS-GLY-CYS-VAL-ILE-MET]: the IC50 was 32.7 nM.

`CCC[C@H](NC(C)=O)C(=O)N[C@H]1CSCc2cccc(c2)CSC[C@@H](C(N)=O)NC(=O)CN(C)C(=O)[C@H](Cc2ccc(F)cc2)N(C)C(=O)[C@H](Cc2ccc(O)cc2)NC(=O)[C@H](Cc2c[nH]c3ncccc23)NC(=O)[C@H](c2ccccc2)NC(=O)[C@H](C)N(C)C(=O)[C@H](CN)NC(=O)[C@H](C)NC(=O)[C@H](C(C)(C)C)NC(=O)[C@H](Cc2ccc(O)cc2)NC1=O` (relative stereo) [Compound R4141, ACE-NVA-CYS*-TYR-TBG-ALA-DAP-NMA-PHG-7AW-TYR-MFF-SAR-CYS*-NH2]: the IC50 was found to be 695 nM. Next, `C=CC(=O)NCCCC[C@H]1C(=O)N[C@@H](c2ccccc2)C(=O)N[C@@H](Cc2c[nH]c3ncccc23)C(=O)N[C@@H](Cc2ccc(O)cc2)C(=O)N(C)[C@@H](Cc2ccc(F)cc2)C(=O)N(C)CC(=O)N[C@H](C(N)=O)CSCc2cccc(c2)CSC[C@H](NC(=O)[C@H](CCC)NC(C)=O)C(=O)N[C@@H](Cc2ccc(O)cc2)C(=O)N[C@@H](C(C)(C)C)C(=O)N[C@@H](C)C(=O)N[C@@H](Cc2c[nH]cn2)C(=O)N1C` (relative stereo) [Compound R4133, ACE-NVA-CYS*-TYR-TBG-ALA-HIS-MKAC-PHG-7AW-TYR-MFF-SAR-CYS*-NH2]: 342 nM; `C#CC[C@@H]1NC(=O)CN(C)C(=O)[C@H](Cc2ccc(F)cc2)N(C)C(=O)[C@H](Cc2ccc(O)cc2)NC(=O)[C@H](Cc2c[nH]c3ncccc23)NC(=O)[C@H](c2ccccc2)NC(=O)[C@H](C)N(C)C(=O)[C@H](Cc2c[nH]cn2)NC(=O)[C@H](CCCCN)NC(=O)[C@H](C(C)(C)C)NC(=O)[C@H](Cc2ccc(O)cc2)NC(=O)CCCCCNC1=O` [Compound R4137, AHX*-TYR-TBG-LYS-HIS-NMA-PHG-7AW-TYR-MFF-SAR-PRG*] (cyclo([Ahx]Y[Tle]KH[NMeA][Phg][Trp(7-aza)]Y[NMePhe(4-F)][Sar][Pra])): 411 nM. Next, `CCC[C@H](NC(C)=O)C(=O)N[C@H]1CSCc2cccc(c2)CSC[C@@H](C(N)=O)NC(=O)CN(C)C(=O)[C@H](Cc2ccc(F)cc2)N(C)C(=O)[C@H](Cc2ccc(O)cc2)NC(=O)[C@H](Cc2c[nH]c3ccccc23)NC(=O)[C@H](c2ccccc2)NC(=O)[C@H](C)N(C)C(=O)[C@H](Cc2c[nH]cn2)NC(=O)[C@H](CCCCN)NC(=O)[C@H](C(C)(C)C)NC(=O)[C@H](Cc2ccc(O)cc2)NC1=O` (relative stereo) [Compound R4115, ACE-NVA-CYS*-TYR-TBG-LYS-HIS-NMA-PHG-TRP-TYR-MFF-SAR-CYS*-NH2]: 34.1 nM.

For the molecule `CCC[C@H](NC(C)=O)C(=O)N[C@H]1CSCc2cccc(c2)CSC[C@@H](C(N)=O)NC(=O)CN(C)C(=O)[C@H](Cc2ccc(F)cc2)N(C)C(=O)[C@H](Cc2ccc(O)cc2)NC(=O)[C@H](Cc2c[nH]c3ncccc23)NC(=O)[C@H](c2ccccc2)NC(=O)[C@H](C)N(C)C(=O)[C@H](Cc2c[nH]cn2)NC(=O)[C@H](CCCCNC(=O)c2ccc(N(C)C)cc2)NC(=O)[C@H](C(C)(C)C)NC(=O)[C@H](Cc2ccc(O)cc2)NC1=O` (relative stereo) [Compound R4134, ACE-NVA-CYS*-TYR-TBG-DMABZK1-HIS-NMA-PHG-7AW-TYR-MFF-SAR-CYS*-NH2], the IC50 turned out to be 346 nM.

As to `CCC[C@H](NC(C)=O)C(=O)N[C@H]1CSCc2cccc(c2)CSC[C@@H](C(=O)N[C@H](CO)C(=O)N[C@@H](CCCCN)C(=O)NCC(=O)N[C@@H](CSSC(C)(C)C)C(=O)N[C@H](C(=O)N[C@H](C(=O)N[C@@H](CC(C)C)C(=O)O)C(C)C)C(C)C)NC(=O)CN(C)C(=O)[C@H](Cc2ccc(F)cc2)N(C)C(=O)[C@H](Cc2ccc(O)cc2)NC(=O)[C@H](Cc2c[nH]c3ncccc23)NC(=O)[C@H](c2ccccc2)NC(=O)[C@H](C)N(C)C(=O)[C@H](Cc2c[nH]cn2)NC(=O)[C@H](CCCCN)NC(=O)[C@H](C(C)(C)C)NC(=O)[C@H](Cc2ccc(O)cc2)NC1=O` (relative stereo) [Compound R4110, ACE-NVA-CYS*-TYR-TBG-LYS-HIS-NMA-PHG-7AW-TYR-MFF-SAR-CYS*-DSER-LYS-GLY-TDSPA-VAL-VAL-LEU], the IC50 was found to be 16.4 nM. In the case of `C#CC[C@H](NC(=O)CCOCCOCCOCCOCCNC(=O)[C@@H]1CSCc2cccc(c2)CSC[C@H](NC(=O)[C@H](CCC)NC(C)=O)C(=O)N[C@@H](Cc2ccc(O)cc2)C(=O)N[C@@H](C(C)(C)C)C(=O)N[C@@H](CCCCN)C(=O)N[C@@H](Cc2c[nH]cn2)C(=O)N(C)[C@@H](C)C(=O)N[C@@H](c2ccccc2)C(=O)N[C@@H](Cc2c[nH]c3ncccc23)C(=O)N[C@@H](Cc2ccc(O)cc2)C(=O)N(C)[C@@H](Cc2ccc(F)cc2)C(=O)N(C)CC(=O)N1)C(N)=O` (relative stereo) [Compound R4107, ACE-NVA-CYS*-TYR-TBG-LYS-HIS-NMA-PHG-7AW-TYR-MFF-SAR-CYS*-PEG4PA-PRG-NH2] it was 9.42 nM.
